Laboratory results as given in patent US20210379046A1, “Methods of Treating Diseases Using Kinase Modulators” (Memorial Sloan Kettering Cancer Center, priority 2018, published 2021).
Entries after “also recorded” stand apart in the source; their conditions may differ.

How the values were obtained:
[1] = tested on: pSTAT3, pSTAT1 in TPC1 cells; experiment: Western blot of STAT phosphorylation in TPC1 cells; assay type: cell-based, human; settings: TPC1, 10 nM AST487, 24 hrs
Experimental: Cells were seeded in a 60 mm dish or 6 well plates. After the appropriate time point, cells were harvested and lysed and protein was quantified by a Lowry assay (Bio-Rad DC Protein Assay; #5000116). Protein levels were normalized and run on SDS PAGE gels (Bio-Rad). Protein was transferred to a nitrocellulose membrane using semi-dry transfer. Membrane was blocked and incubated with respective antibodies. When needed, secondary antibodies with HRP were incubated for 1 hr. Enhanced chemiluminescent substrate for HRP enzymes was used to image protein levels (Thermo-Fischer; #34095).
Cells were seeded in a 60 mm dish or 6 well plates. After the appropriate time point, cells were harvested, lysed in RIPA buffer (Thermo Instruments) and protein concentration was quantified by a Lowry assay (using the Bio-Rad DC Protein Assay; #5000116 on a Spectramax device from Molecular Devices). Protein loading levels were equalized per lane and separated on SDS gels (Bio-Rad). Protein was transferred to a nitrocellulose membrance using semi-dry transfer (BioRad). Membranes were blocked with Omniblock (American Bio) and incubated with respected antibodies. When needed, secondary antibodies with HRP were incubated for 1 hr. Enhanced chemiluminescent substrate for HRP enzymes was used to image protein levels (Thermo-Fischer; #34095) on a ChemiDoc MP imager with Soft Max Pro software (Biorad).

[2] = tested on: TPC1 cells; experiment: ADCC chromium-51 release assay with ESK1 and human PBMCs on inhibitor-pretreated TPC1 cells; assay type: cell-based
Experimental: Peripheral blood mononuclear cells were derived from healthy donors by Ficoll density centrifugation after receiving informed consent on Memorial Sloan Kettering Institutional Review board-approved protocols. TPC1 cells treated with RET inhibitor drugs and DMSO control were labeled with chromium-51 and co-cultured with PBMCs and ESK (or its isotype control, hIgG1). Different E:T ratios were used and after 5 hrs of incubation at 37° C., the supernatant was harvested and chromium levels were measured by Chromium-51 release assay (Perkin Elmer). Higher chromium levels indicated higher levels of cytotoxicity.
After the addition of ESK and peripheral blood mononuclear cells for 5 hrs, chromium release was measured.
For each experiment reported, fresh peripheral blood mononuclear cells were derived from a healthy donor by Ficoll density centrifugation after receiving informed consent on Memorial Sloan Kettering Institutional Review Board-approved protocols. […] Cells were then labeled with 1 uCi/well chromium-51 for 1 hr at 37° C. […] Different effector:target ratios were used and after 5 hrs of incubation at 37° C., the supernatant was harvested and chromium levels were measured through standard chromium-51 release assay on a Top Count machine (Perkin Elmer).

[3] = tested on: TPC1 cells; experiment: Luminex cytokine secretion, TPC1 cells; assay type: cell-based, human; settings: TPC1, 10 nm AST487
Experimental: Supernatant media were harvested after treatment and analyzed by the Luminex device (Luminex Corporation, Austin, Tex.) for relevant cytokine secretion. […] On the left side of each panel is data after 24 hours. On the right side of each panel is data after 48 hours. […] IFNγ detected in the Luminex assay (50-70 ng/ml) is from the added IFNγ at 100 ng/ml at time zero. Therefore, the increase in HLA after inhibitor treatment in these cell lines is not due to indirect activation of the JAK/STAT pathway via autocrine cytokine signaling. The data points shown in this figure are in pairs for each condition. The data point pairs for each time point are, from left to right: DMSO, Rux, Alec, IFNg, and IFNg+Rux.

[4] = tested on: LC-2/ad cells; experiment: Flow cytometry of cell surface HLA on LC-2/ad cells; assay type: cell-based, human; settings: 72 hrs
Experimental: (§1) If adherent cells, they were seeded one day before treatment.

[5] = tested on: TT cells; experiment: Flow cytometry of cell surface HLA on TT cells; assay type: cell-based, human; settings: 72 hrs
Experimental: as §1

## CCN1CCN(Cc2ccc(NC(=O)Nc3ccc(Oc4cc(NC)ncn4)cc3)cc2C(F)(F)F)CC1 [AST487]
[1]
  STAT3 phosphorylation: increased significantly; also recorded: increased phosphorylation of STAT3 at 24 hrs
[2]; TPC1 pre-incubated with RET inhibitor
  ADCC activity of ESK1 against pretreated TPC1 cells: improved antibody-dependent cellular cytotoxicity (ADCC) activity; also recorded: increased in vitro ADCC cytotoxicity
[2]; TPC1 pretreated 72 hrs with 10 nM AST487, ESK and PBMCs 5 hrs, 50:1 E:T
  specific lysis: 20%
[3]
  IFNα, IFNγ, IL4, IL6 and TNFα secretion: had no effect on IFNα, IFNγ, IL4, IL6 or TNFα secretion; also recorded: had no effect on IFNα, IFNγ, IL4, IL6 and TNFα secretion
[4]
  surface HLA: only small increases were seen; also recorded: increases in surface HLA
[5]
  surface HLA: increased in a AST487 dose-related manner; also recorded: increases in surface HLA
